How the values were obtained:
[1] = acid- and heat-labile; release two moles of isovaleric acid per mole; cited from earlier work
[2] = system: recurrent excessive lower back pain; experiment: Case report Example 1: valerian preparation and ibuprofen for recurrent, excessive lower back pain; assay type: in vivo, human; conditions: person; preparation taken by itself
From the text: These examples are provided for purposes of illustration and are not intended to be limiting of the invention. A person was complaining of recurrent excessive lower back pain from prior injuries. During a bout of lower back pain, they stated that […] could not sleep or sit comfortably and was in duress from the constant pain. […] It was stated that the ibuprofen would provide a decrease in inflammation and some analgesic therapy whereas the addition of the valerian and hops extract could provide a decrease in the muscle tone and analgesia as well, thereby allowing for relief from the pain. […] Their spouse stated that […] “acted like a new […]” because they were not grimacing and stooped from pain.

[3] = cited from earlier work
[4] = clinical; cited from earlier work
[5] = system: excessive lower back pain; experiment: Case report Example 2: valerian preparation and ibuprofen for acute muscle strain from overexertion; assay type: in vivo, human; conditions: person; ibuprofen taken alone
From the text: These examples are provided for purposes of illustration and are not intended to be limiting of the invention. A person, complained of excessive lower back pain that interfered with sleeping and the general activities of daily living such as sitting or standing. They had injured their back while shoveling deep snow from their driveway and sidewalk. They had been taking ibuprofen but experiencing little relief. […] They continued to take the combination until their back healed and no longer gave their pain without medication.

CNS = conditions: in vivo; cited from earlier work

## CC(=O)O[C@H]1C[C@@H]2C(COC(=O)CC(C)C)=CO[C@@H](OC(=O)CC(C)C)[C@@H]2[C@@]12CO2 [didrovaltrate]
[1]
  survival in the stomach following oral administration: do not survive intact

## CC(=O)OCC1=CO[C@@H](OC(=O)CC(C)C)[C@H]2C1=C[C@H](OC(=O)CC(C)C)[C@]21CO1 [valtrate]
[1]
  survival in the stomach following oral administration: do not survive intact

## CC(=O)Nc1ccc(O)cc1 [acetaminophen]
[2]
  relief from lower back pain: without any useful sense of relief

## CC(C)CC(N)=O [isovaleramide]
[3]
  acute toxicity in vivo: low acute toxicity
[4]
  anxiolytic properties: clinically useful anxiolytic properties

## CC(C)Cc1ccc(C(C)C(=O)O)cc1 (stereo not drawn) [ibuprofen]
[2]
  relief from lower back pain: without any useful sense of relief
[5]
  relief from lower back pain: little relief

## CCN(CC)C(=O)CC(C)C [N,N-Diethyl isovaleramide]
CNS
  CNS properties: CNS stimulant (convulsant) properties

## CC(=O)Oc1ccccc1C(=O)O [aspirin]
[2]
  relief from lower back pain: without any useful sense of relief

Source: patent US6383527B1, “Compositions comprising valerian extracts, isovaleric acid or derivatives thereof with a NSAID” (NPS Pharmaceuticals, Inc., priority 2001, dated 2002)
